Reference: PMC11997999, “Uncovering α-Selectivity for Liver X Receptor Agonists for Lipotoxic Cancer Therapies” (Journal of Medicinal Chemistry, 2025)

How the values were obtained:
Hep3B cells = assay: Oxidative stress in Hep3B cells (CellROX Green Reagent, FACS); format: cell-based, human; details: 3 days, 3 μM LXR agonist + 1 μM sorafenib
Protocol: We previously described that our established lipotoxic therapy triggers oxidative stress and an ER stress response, which finally leads to apoptosis in tumor cells.[6]
The determination of oxidative stress levels was performed using CellROX Green Reagent from Thermo Fischer Scientific in Hep3B cells. Measurement of green fluorescence was performed using the FACS LSRFortessa cell analyzer (BD Bioscience, Flow Cytometry Core Facility Tuebingen) after 3 days of treatment. Data were collected using DIVA software (v9.0.1).

AML12 cells = assay: Cell viability analysis in untransformed liver cells AML12 (CellTiter-Glo); format: cell-based; details: AML12, 5d, with 2 μM sorafenib
Protocol: To further determine the therapeutic potential of compound 40, we analyzed the effect of a combinatorial lipotoxic therapy with this agonist in untransformed liver cells. We applied the well-established untransformed liver cell lines AML12 and BNL CL.2 and subjected them to treatment with 40 in combination with sorafenib.
For organoid treatment studies, digestion of organoids was performed using TrypLE Express (Gibco) supplemented with 100 μg/mL DNaseI and 10.5 μM Y-27632 dihydrochloride (Invitrogen) at 37 °C, and afterward, single-cells were plated in white 96 well plates (Sarstedt) in a mixture of 10% Matrigel (Growth Factor Reduced (GFR) Matrigel, Corning) in culture medium. Cell viability was determined after 5 days of treatment using the CellTiter-Glo 3D Cell Viability Assay Kit (Promega). Cell viability of Hep3B, AML12, and BNL CL.2 cells was determined after 5 days of treatment in white 96 well plates (Sarstedt) using the CellTiter-Glo 2.0 Cell Viability Assay Kit (Promega). AML12 and BNL CL.2 cells were also obtained from the American Type Culture Collection. The luminescence signal was measured using an […] M PLEX plate reader (Tecan) and the Tecan i-control software (v3.9.1). Sodium oleate (Selleckchem) was dissolved in methanol and added to cells at a final concentration of 200 μM.

SMILES: O=C1C(Nc2ccc(N3CCCCC3)cc2)=C(c2ccccc2)C(=O)N1Cc1ccccc1 [Compound 40, 1-Benzyl-3-phenyl-4-((4-(piperidin-1-yl)phenyl)amino)-1H-pyrrole-2,5-dione]
- oxidative stress induction in combination with sorafenib (Hep3B cells): more efficient in inducing oxidative stress than GW3965 (2), GSK3987 (3), and AZ876 (4)
- sensitivity of untransformed liver cells to combination therapy (cell viability) (AML12 cells): only very low sensitivity
